Data set [1] is described as follows: In vitro human hepatocytes clearance assay. Format: in vitro ADME. The protocol:
In Vitro Rat/Human Hepatocytes Clearance Assay
Rat hepatocytes in male gender and human hepatocytes in mixed gender were obtained from commercial vendors (e.g., BioreclamationIVT) and stored at −150° C. prior to use. 10 mM stock solutions of tested compounds were prepared in DMSO. Thawing medium and supplement incubation medium (serum-free) were placed in a 37° C. water bath for at least 15 minutes prior to use. Stock solutions were diluted to 100 μM by combining 198 μL acetonitrile and 2 μL of 10 mM stock solution.
Vials of cryopreserved hepatocytes were removed from storage, ensured that vials remain at cryogenic temperatures. The vials were thawed in a 37° C. water bath with gently shaking. Vials were kept in a water bath until all ice crystals had dissolved and were no longer visible. Vials were sprayed with 70% ethanol before being transferred to a biosafety cabinet. And then the contents were poured into the 50 mL thawing medium conical tube. Vials were centrifuged at 100 g for 10 minutes at room temperature. Thawing medium was aspirated and hepatocytes were resuspended with serum-free incubation medium to yield ^˜1.5×10^6 cells/mL.
Cell viability and density were counted using a Trypan Blue exclusion, and then cells were diluted with serum-free incubation medium to a working cell density of 1×10^6 viable cells/ml. A portion of the hepatocytes at 1×10^6 viable cells/mL was boiled for 10 min prior to adding to the plate as negative control to eliminate the enzymatic activity so that little or no substrate turnover should be observed. The inactivated hepatocytes were used to prepare negative samples, which were used to exclude the misleading factor that resulted from instability of chemical itself.
Aliquots of 247.5 μL hepatocytes were dispensed into each well of a 96-well non-coated plate. The plate was placed in the incubator on an orbital shaker for approximately 10 minutes. Aliquots of 2.5 μL of the 100 μM test compounds were added into respective wells of the non-coated 96-well plate to start the reaction. This assay was performed in duplicate. The plate was incubated in the incubator on an orbital shaker for the designed time points. 20 μL of contents were transferred and mixed with 6 volumes (120 μL) of cold acetonitrile with internal standard to terminate the reaction at time points of 5, 15, 30, 45, 60, 80 and 100 minutes. Samples were centrifuges for 20 minutes at 4000 g and aliquots of 100 μl of the supernatants were used for LC-MS/MS analysis for measurement of test compounds.
In vitro hepatocyte clearance was estimated based on determination of elimination half-life (T1/2) of compounds disappearance from their initial concentrations. Peak area ratios of each compound (test or control) to IS was calculated. Ln (% Control) versus Incubation Time (min) curve was plotted, and the slope of a linear fitting line was calculated. Drug elimination rate constant k (min-1), T1/2 (min), and in vitro intrinsic clearance CLint (μL/min/E6) was calculated according to the following equations: k=−slope T1/2=0.693/k CLint=k/Chep • Where Chep (cells×μL-1) is the cell concentration in the incubation system. Procedure for Log D Determination

Data set [2] is described as follows: DMSO solubility. The class given is physicochemical.
Data set [3] deals with T1, p-BTK (Phospho-Btk Tyr223) in TMD-8 cells (Homo sapiens, UniProt Q06187).
T1 construct: endogenous in cells; host or cells: TMD-8
Put plainly: TMD8 cell line p-BTK Elisa assay. The class given is cell-based. The following applies: for Maximal Inhibition Level: p-BTK ELISA; for IC50: pervanadate 100 μM, Tyr223 ELISA. The protocol: The test compounds were added to the cells and cells were incubated for 0.5 hour at 37° C., 5% CO2. Then pervanadate solution was added to the cells to make a final concentration of 100 μM, and cells were incubated for a further 1 hour at 37° C., 5% CO2. […] The plate was read on a Multiscan Spectrum reader set to 450 nm wavelengths.

For data set [4], the target named is T2, Recombinant BTK wild type (BTK WT) (Homo sapiens, UniProt Q06187).
T2 construct: purchased Thermo fisher
The data set can be described thus: BTK WT HTRF kinase assay. The class given is biochemical. The following applies: 30 min pre-incubation, 120 min reaction. The protocol: (§1) Recombinant BTK wild type (BTK WT) was purchased from Thermo fisher.
(§2) In brief, recombinant kinases were pre-incubated in the presence or absence of compound at room temperature for 30 minutes. The reaction was initiated by the addition of the ATP and substrate peptide which could be phosphorylated by kinases in the reaction. After 120 minutes incubation, the reaction was stopped by the addition of the detection reagent mix containing EDTA.
Background: Time-resolved FRET reads energy transfer from a long-lived donor to a nearby acceptor.

In data set [5] the target is T3, Recombinant BTK(C481S) (Homo sapiens, UniProt Q06187, C481S).
T3 construct: purchased SignalChem
The data set can be described thus: BTK C481S HTRF kinase assay. Format: biochemical. The conditions noted are these: 30 min pre-incubation, 120 min reaction. The protocol: [The procedure below names another variant; the source lists this variant under the same test.] as §1, §2

A short description of data set [6]: Log D determination (octanol/phosphate buffer). The following applies: 25° C. Format: physicochemical. The protocol: 10 μL of working solution of each cassette is placed in order into respective 96-well rack position (Log D plate). Add 500 μL of saturated octanol into each vial of the above cap-less Log D plate followed by the addition of 500 μL of saturated phosphate buffer. Seal with a moulded PTFE/SIL 96-Well Plate Cover.
The samples are centrifuged at 4,000 rpm at 25° C. for 30 minutes to separate the phases. Pipette and syringe are used to pipette about 100 μL from the octanol and buffer phases to a new 96-well plate, respectively.
5 μL of octanol sample is transferred to a new 96-well plate, followed by addition of 495 μL of a mixture of H2O and acetonitrile containing internal standard (1:1) as 100 fold octanol samples. Vortex for 5 minutes at 1,000 rpm.
50 μL of 100 fold samples are transferred to new 96-well plate, followed by addition of 450 μL of a mixture of H2O and acetonitrile containing internal standard (1:1) as 1,000 fold octanol samples. Vortex for 5 minutes at 1,000 rpm.
The 1,000 folds octanol samples are serially diluted into 10,000, 100,000 and 1,000,000 folds with a mixture of H2O and acetonitrile containing internal standard (1:1).
50 μL of buffer samples are transferred to new 96-well plate, followed by addition of 450 μL of a mixture of H2O and acetonitrile containing internal standard (1:1) as 10 folds buffer samples. Vortex for 5 minutes at 1,000 rpm.
The 10 folds buffer samples are serially diluted into 100, 1,000 and 10,000 folds with a mixture of H2O and acetonitrile containing internal standard (1:1). The samples are evaluated by LC/MS/MS analysis. All compounds are tested in singlicate.
All calculations are carried out using Microsoft Excel. The concentrations of test compound in octanol/buffer solution are evaluated by LC/MS/MS. Calculate the Log D value of the test compound as follows:
[formula] DF means the dilution factor. Procedure for Protein Binding Measurements in Human Plasma by Using Equilibrium Dialysis

Each structure is given as a SMILES string. Converted amounts (≈) assume the structure as drawn. Where two headings read alike, the source gives them in different places.

T1 sequence (Q06187 whole entry): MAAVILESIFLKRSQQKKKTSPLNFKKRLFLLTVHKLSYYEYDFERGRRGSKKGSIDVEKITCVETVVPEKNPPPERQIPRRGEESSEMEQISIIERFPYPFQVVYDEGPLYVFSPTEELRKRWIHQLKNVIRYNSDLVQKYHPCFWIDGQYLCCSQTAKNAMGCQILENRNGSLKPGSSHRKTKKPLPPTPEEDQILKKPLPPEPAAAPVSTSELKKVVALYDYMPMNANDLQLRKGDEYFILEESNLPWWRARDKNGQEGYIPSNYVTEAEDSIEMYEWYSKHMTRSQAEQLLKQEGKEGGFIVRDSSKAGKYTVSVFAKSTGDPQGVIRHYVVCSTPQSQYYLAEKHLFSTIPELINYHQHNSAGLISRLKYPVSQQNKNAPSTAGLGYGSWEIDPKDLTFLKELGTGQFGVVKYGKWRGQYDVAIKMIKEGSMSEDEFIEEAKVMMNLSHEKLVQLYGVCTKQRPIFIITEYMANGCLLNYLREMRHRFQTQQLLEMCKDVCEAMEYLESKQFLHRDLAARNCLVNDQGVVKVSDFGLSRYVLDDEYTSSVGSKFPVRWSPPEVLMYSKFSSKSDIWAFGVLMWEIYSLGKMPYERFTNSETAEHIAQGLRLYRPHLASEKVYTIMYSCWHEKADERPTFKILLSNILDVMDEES
T2 sequence (Q06187 whole entry): as above
T3 sequence (Q06187 whole entry C481S): as the sequence (Q06187 whole entry) above, with C481S counted along it

For the compound `Nc1ncnn2c(C3CCC(CO)OC3)nc(-c3ccc(Oc4ccccc4)cc3F)c12` (single isomer, unassigned) [Compound 11, Trans-(5-(4-amino-5-(2-fluoro-4-phenoxyphenyl)imidazo[5,1-f][1,2,4]triazin-7-yl)tetrahydro-2H-pyran-2-yl)methanol], the “Human Hep Clint” value in data set [1] is 3.6 μL/min/10∧6 cells. The same compound yielded a solubility in data set [2] of under 1.6 µM. The “Maximal Inhibition Level” value in data set [3] is 99.3%. Moreover, the IC50 in data set [3] is 34.7 nM; in data set [4], 4.51 nM; in data set [5], 5.03 nM. In addition, the logD in data set [6] is recorded as 3.09.
In the case of `Nc1nccn2c(C3CCC(CO)OC3)nc(-c3ccc(Oc4ccccc4)cc3)c12` (stereo not shown) [Compound 1, (5-(8-amino-1-(4-phenoxyphenyl)imidazo[1,5-a]pyrazin-3-yl)tetrahydro-2H-pyran-2-yl)methanol], in data set [1], the “Human Hep Clint” value is reported as 28.9 μL/min/10∧6 cells. Besides, in data set [2] (kinetic from dmso stock), the solubility came out at 51.3 µM (≈ 21.4 µg/mL). In data set [3], the “Maximal Inhibition Level” value amounted to 97.9%. The IC50 was determined as 18.9 nM in data set [3], 1.16 nM in data set [4] and 1.06 nM in data set [5]. Moreover, the logD at 2 h in data set [6] came to 3.14.
Take `Nc1ncnn2c(C3CCC(CO)OC3)nc(-c3ccc(Oc4ccccc4)c(F)c3F)c12` (stereo not shown) [Compound 12, (5-(4-amino-5-(2,3-difluoro-4-phenoxyphenyl)imidazo[1,5-f][1,2,4]triazin-7-yl)tetrahydro-2H-pyran-2-yl)methanol]: the “Human Hep Clint” value in data set [1] stood at 2.0 μL/min/10∧6 cells. In addition, the solubility in data set [2] is on record as 45.7 µM (≈ 20.7 µg/mL). In addition, the “Maximal Inhibition Level” value in data set [3] stood at 97.0%. In addition, the figures for the IC50 in data set [3], in data set [4] and in data set [5] were 23.2 nM, 0.27 nM and 0.27 nM, respectively. Besides, the logD at 2 h in data set [6] came out at 3.18.
For `Nc1ncnn2c(C3CCC(CO)OC3)nc(-c3ccc(Oc4cccc(F)c4F)cc3)c12` (stereo not shown) [Compound 14, (5-(4-amino-5-(4-(2,3-difluorophenoxy)phenyl)imidazo[5,1-f][1,2,4]triazin-7-yl)tetrahydro-2H-pyran-2-yl)methanol], the “Human Hep Clint” value in data set [1] came to 2.5 μL/min/10∧6 cells. Besides, in data set [2] (kinetic from dmso stock), the solubility turned out to be 48 µM (≈ 21.8 µg/mL). Moreover, in data set [3], the “Maximal Inhibition Level” value was 98.0%. Further, the IC50 was 24.3 nM in data set [3], 0.7 nM in data set [4] and 0.86 nM in data set [5]. In data set [6], this compound displayed a logD at 2 h of 3.29.

As a reminder, the solubility is the dissolved amount per volume that the medium holds. A high value points to a readily soluble substance. The term IC50 denotes the concentration that gives 50% inhibition. As a reminder, the logD is the decadic logarithm of the distribution of all forms, ionised or not, between an organic phase and buffer at a given pH. A higher logD goes with a more lipophilic compound.
